Experimental data: US6803233B2, “Model for Alzheimer's disease and other neurodegenerative diseases” (priority 2000, dated 2004)
Entries after “also recorded” stand apart in the source; their conditions may differ. Square brackets hold non-standard residues; d marks the D form. Peptide text beside a SMILES is read from it. Nle = CCCC[C@H](N)C(=O)O

Columns and labels:
MAPK (ERK1/2) = test: Immunoblot with anti-active MAPK in cultured hippocampal slices; assay type: cell-based; settings: 6 days
tangle-like structures = test: AT8 immunostaining of cultured rat hippocampal slices; assay type: cell-based; settings: for number of ZPAD-induced tangles in the presence of the inhibitor: hippocampal slices, ZPAD plus inhibitor, 6 days
Experimental: Cultured slices were stained with anti-phosphorylated tau antibody AT8.
(§1) Cultures of hippocampal slices were prepared from 10-12 days old rats.
Cultured rat hippocampal slices of 12 days in vitro were treated with 20 μM pravastatin for 6 days and processed from immunohistological studies with the monoclonal antibody AT8. The subiculum, CA1 field, and CA3 field of the hippocampus were examined by photomicroscopy.

TGF-beta = test: RT-PCR/northern blot of cytokine mRNA in cultured hippocampal slices; assay type: cell-based
reactive microglia = test: ED-1 immunocytochemistry of cultured brain explants; assay type: cell-based, rat; settings: 6 days
Experimental: Immunocytochemical studies using the monoclonal antibody ED-1 that recognizes reactive microglia were used at 1:1000 dilution following standard immunohistochemical procedures. Microglial activation was determined by measuring cell numbers, optical density, and size of cell bodies using the program NIH Image. Brain tissue was cultured for 12 days and treated with ZPAD (20 μM) in the presence or absence of PD98059 (50 μM) for 6 days (FIG. 18). Cultured explants were then sliced and stained by using monoclonal antibody ED-1 which recognizes reactive microglia, a classical marker of inflammation. […] Cultured brain explants were then sliced and stained by using monoclonal antibody ED-1, a classical marker for reactive microglia and macrophages.

APP = test: Immunoblot of APP in hippocampal slices, mevastatin plus kinase inhibitors (Example 8); assay type: cell-based
tau = test: Immunoblot of tau (tau-1, AT8) in cultured rat hippocampal slices; assay type: cell-based
Experimental: Immunoblotting was carried out by using anti-non phosphorylated tau antibody, tau-1 or anti-phosphorylated tau antibody, AT8.
as §1

p35 [1] = test: Immunoblot of p35/p25 in cultured rat hippocampal slices; assay type: cell-based; settings: 6 days
Experimental: Hippocampal slices were collected, homogenized, and subjected to SDS-PAGE electrophoresis. Immunoblots were then probed with anti-p35 sera that were raised against the C-terminal domain of p35.
as §1

tau protein = settings: literature report; cited from earlier work
cathepsin D = settings: literature report; cited from earlier work
p35 [2] = test: Immunoblot of p35 in hippocampal slices from apoE-knockout mice; assay type: cell-based; settings: apoE-knockout mouse slices; mevastatin plus agent
[3] = tested on: amyloid precursor protein (APP); test: Immunoblot of APP (antibody 22C11) in hippocampal slices from apoE-knockout mice; assay type: cell-based, mouse
Excerpt: Tissues were processed for immunoblotting and assessed by monoclonal antibody 22C11, which recognizes the N-terminal domain of amyloid precursor protein (APP). […] Whether this new product is due to proteolysis or changes in protein maturation is under investigation.

IL-10 = test: RT-PCR/northern blot of cytokine mRNA in cultured hippocampal slices; assay type: cell-based; settings: ZPAD 20 μM, mevastatin 20 μM
microglia = test: CD11b immunostaining of hippocampus of rats injected daily with statins; assay type: in vivo, rat; settings: male Sprague-Dawley rats, 10 mg/kg i.p. daily for 39 days
Experimental: Brains were then removed, postfixed in perfusate for 5-6 hors, and cryoprotected in 15% sucrose/PB followed by 30% sucrose/PB (12-24 hours each) at 4° C. Coronal sections were cut at 20-30 μm by using a freezing microtome and collected into PBS. Immunostaining was performed as described for the in vitro experiments using monoclonal antibody CD11b that reacts with both active and non-active microglia.

TNF-alpha = test: RT-PCR/northern blot of cytokine mRNA in cultured hippocampal slices; assay type: cell-based; settings: mevastatin 20 μM
Excerpt: FIG. 17. Messenger RNA levels of TNF-alpha are increased by interruption of cholesterol synthesis.
Levels of mRNA for the cytokines were quantified by RT-PCR and northern blot analysis, following protocols outlined in the RT-PCR kit (Ambion Inc.).

COc1cccc(-c2cc(=O)c3ccccc3o2)c1N [PD98059, 2-2(Amino-3-methoxyphenyl)-4H-1-benzopyran-4-one]
MAPK activation by mevastatin and ZPAD in the presence of the inhibitor (MAPK (ERK1/2)): blocked | number of ZPAD-induced tangles in the presence of the inhibitor (tangle-like structures): significantly reduced | mRNA levels for certain cytokines (FIG. 16) (TGF-beta; PD98059 treatment): decreased | ZPAD-induced reaction of microglia with co-application of the inhibitor (reactive microglia; ZPAD 20 μM plus PD98059 50 μM): completely blocked | reaction of microglia (ED-1 staining) (reactive microglia; ZPAD 20 μM, mevastatin 20 μM or PD98059 50 μM alone): did not induce evident change in microglia | effects of mevastatin on APP in the presence of the inhibitor (APP): partially blocked

CCCC[C@@H](C=O)NC(=O)[C@H](CC(C)C)NC(=O)[C@H](CC(C)C)NC(C)=O [calpain inhibitor I, N-acetyl-leucyl-leucyl-norleucinal] (Ac-Leu-Leu-[Nle]-aldehyde)
ZPAD-induced tau fragments (tau 15-35 / tau 29 and tau 40) in the presence of the inhibitor (tau; ZPAD plus inhibitor, 6 days, 2 separate experiments): almost completely blocked | ZPAD-induced conversion of p35 to p25 in the presence of the inhibitor (p35 [1]; ZPAD plus inhibitor): significantly inhibited | number of ZPAD-induced tangles in the presence of the inhibitor (tangle-like structures): significantly reduced

CCN(CC)CCCC(C)Nc1ccnc2cc(Cl)ccc12 (stereo not drawn) [chloroquine]
29 kDa tau fragment (tau 29) (tau protein): delayed appearance of a 29 kDa fragment | enzymatically active cathepsin D (cathepsin D): increases in enzymatically active cathepsin D

CC(O)(CCO)CC(=O)O (stereo not drawn) [mevalonate]
mevastatin-induced down regulation of p35 in the presence of the agent (p35 [2]): completely blocked | effects of mevastatin on APP in the presence of the agent ([3]; mevastatin plus agent): completely blocked

CC[C@H](C)C(=O)O[C@H]1CCC=C2C=C[C@H](C)[C@H](CC[C@@H]3C[C@@H](O)CC(=O)O3)[C@H]21 [mevastatin]
phosphorylated 33 kDa tau breakdown products (AT8 blot) (tau; rat hippocampal slices): markedly enhanced | levels of p35 (p35 [1]; hippocampal slices): significant decreases; also recorded: rapidly and markedly decreased; also recorded: reduced | mRNA levels of IL-10 (IL-10): increased | activated MAPK (ERK1/2) (MAPK (ERK1/2); hippocampal slices): activated; also recorded: increased; also recorded: activation | levels of full length APP ([3]; mevastatin treatment): increased levels | novel APP band with molecular weight slightly lower than native APP ([3]; mevastatin treatment): induced a novel band | levels of full length APP ([3]; mevastatin treatment, listed as Mevastatin): markedly increased | induction of AT8-immunoreactive tangle-like structures (tangle-like structures; rat hippocampal slices, agent applied for 6 days): moderately increased; also recorded: resulted in tangle-like structures | mRNA levels of TGF-beta (TGF-beta; ZPAD 20 μM, mevastatin 20 μM): increased | microglial reactions (microglia): induced; also recorded: Induction of microglial reactions | mRNA level of TNF-alpha (TNF-alpha): markedly increase
